Reference: US12391685B2, “Inhibitors of RNA-guided nuclease target binding and uses thereof” (THE BROAD INSTITUTE, INC., priority 2018, dated 2025)

Target: SpCas9 (Streptococcus pyogenes serotype M1, UniProt Q99ZW2)
Assay type: cell-based, S. pyogenes
Set-up: made in house; host or cells: E. coli Rosetta (DE3)
Settings: not told
Excerpt: FIGS. 8A-8H—Structure-activity analysis and inhibition of dCas9-based transcriptional upregulation. (FIG. 8A) Structure-activity relationship studies of BRD3433 in the eGFP-disruption assay in U2OS.eGFP.PEST cells. The set of functional groups on top represents variation at the 1-N-cap position (R^1) whereas those at the bottom represents the functional group variation at the 8-position (R^2). Bar plot depicts the reduction in the activity of different structural analogs with respect to that of BRD3433. Asterisk-labeled compounds contain a methyl group at the 4-N position, while others have a proton. The data are an average of two biological replicates. (FIG. 8B) Inhibition of dSpCas9-based transcriptional upregulation of HBG1 gene in HEK293FT cells by BRD7087. Cells were transfected with dSpCas9, MS2.p65.HSF1.GFP plasmids along with either RFP or HBG1 gRNA plasmid and incubated in the presence of the small molecules at the indicated concentration for 48 h before RT-qPCR analysis. Data represents average of 6 technical replicates. Y-axis represents % fold change in the compound activity with respect to BRD7087. […] (FIG. 8D) Cellular impermeability of the anti-CRISPR protein AcrllA4 assessed by lack of SpCas9 inhibition in the eGFP-disruptoin assay when AcrLLA4 is incubated in the media. […] (FIG. 8F) Human plasma stability of compound as determined by UPLC/MS in MRM method. […]

SpCas9, sequence (Q99ZW2 whole entry): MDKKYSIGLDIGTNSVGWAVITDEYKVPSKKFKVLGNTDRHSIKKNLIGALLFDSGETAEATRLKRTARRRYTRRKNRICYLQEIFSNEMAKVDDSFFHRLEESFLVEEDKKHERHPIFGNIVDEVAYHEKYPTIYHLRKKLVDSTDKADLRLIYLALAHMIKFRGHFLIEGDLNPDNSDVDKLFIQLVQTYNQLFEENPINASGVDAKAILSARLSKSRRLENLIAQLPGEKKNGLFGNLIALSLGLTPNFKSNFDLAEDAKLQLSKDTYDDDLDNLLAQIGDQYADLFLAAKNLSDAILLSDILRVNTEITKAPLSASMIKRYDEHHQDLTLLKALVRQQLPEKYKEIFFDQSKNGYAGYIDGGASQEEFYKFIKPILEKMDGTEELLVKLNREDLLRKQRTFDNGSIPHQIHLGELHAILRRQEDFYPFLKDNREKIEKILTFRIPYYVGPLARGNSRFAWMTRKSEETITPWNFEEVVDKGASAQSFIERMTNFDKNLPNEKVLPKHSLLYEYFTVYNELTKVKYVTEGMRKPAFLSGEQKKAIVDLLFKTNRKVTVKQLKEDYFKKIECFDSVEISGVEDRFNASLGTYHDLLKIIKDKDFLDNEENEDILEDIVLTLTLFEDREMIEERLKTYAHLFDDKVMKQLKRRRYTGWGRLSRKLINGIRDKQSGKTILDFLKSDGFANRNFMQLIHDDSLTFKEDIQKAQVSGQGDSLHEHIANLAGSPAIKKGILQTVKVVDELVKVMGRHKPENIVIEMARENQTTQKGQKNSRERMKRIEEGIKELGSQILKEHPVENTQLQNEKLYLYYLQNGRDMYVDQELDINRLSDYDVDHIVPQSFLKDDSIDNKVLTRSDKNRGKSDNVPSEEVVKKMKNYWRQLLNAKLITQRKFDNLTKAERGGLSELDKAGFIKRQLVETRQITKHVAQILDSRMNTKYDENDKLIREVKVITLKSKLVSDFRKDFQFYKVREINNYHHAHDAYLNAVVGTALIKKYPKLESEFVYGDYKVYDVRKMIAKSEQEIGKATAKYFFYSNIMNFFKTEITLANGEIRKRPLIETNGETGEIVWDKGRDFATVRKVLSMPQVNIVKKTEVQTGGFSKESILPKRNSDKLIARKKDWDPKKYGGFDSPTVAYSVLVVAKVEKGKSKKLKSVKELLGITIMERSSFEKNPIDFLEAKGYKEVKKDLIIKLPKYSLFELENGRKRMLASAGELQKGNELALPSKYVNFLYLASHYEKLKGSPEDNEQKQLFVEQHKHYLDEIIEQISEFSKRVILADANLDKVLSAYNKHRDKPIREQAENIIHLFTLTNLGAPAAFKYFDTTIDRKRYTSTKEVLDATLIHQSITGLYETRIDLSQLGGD

Structure (SMILES): Cc1ccc(S(=O)(=O)N2CC[C@@H]3[C@H](CO)Nc4ccc(-c5ccccc5F)cc4[C@@H]32)cc1 [BRD0539, ((3aR,4R,9bR)-8-(2-fluorophenyl)-1-tosyl-2,3,3a,4,5,9b-hexahydro-1H-pyrrolo[3,2-c]quinolin-4-yl) methanol]
- cell permeability (in words): cell permeable
